Measurements taken from US10914725B2, “Culture medium additive, culture medium composition, and method for culturing cells or tissue using same” (NISSAN CHEMICAL INDUSTRIES, LTD., priority 2015, dated 2021).

Columns and labels:
Format in all cases: cell-based
[1] = tested on: Human liver cancer cell line HepG2; experiment: Evaluation of hepatotoxic substance by high content analysis (Experimental Example 9); conditions: for average cell number per sphere / average dead cell number in sphere / average sphere number per 20 mm^2 / projected area: 0.03 (w/v)% low-molecular agar medium, 2 days with flutamide
Procedure: (§1) By a method similar to the preparation method of medium composition of Experimental Example 1, a medium composition containing 10 (v/v) % FBS and 0.03 (w/v) % of low-molecular agar (“ultraagar Ena”, manufactured by InaFood Industry) in DMEM (manufactured by Wako Pure Chemical Industries, Ltd.) was prepared. Human liver cancer cell line HepG2 (manufactured by DS PHARMA BIOMEDICAL CO., LTD.) was suspended in the above-mentioned medium composition containing low-molecular agar at 11,000 cells/mL. The above-mentioned cell suspension was dispensed to the wells of a 96 well flat bottom ultra-low attachment surface microplate (manufactured by Corning Incorporated, #3474) at 90 μL per 1 well, and the plate was cultured in a standing state in a CO2 incubator (37° C., 5% CO2) for 3 days. On day 3 of culture, flutamide (manufactured by Sigma-Aldrich) was added by 10 μL per 1 well. Successively, the plate was further cultured in a standing state in a CO2 incubator (37° C., 5% CO2) for 2 days. As a comparison control, HepG2 cells were suspended in DMEM containing 10 (v/v) % FBS and the suspension was dispensed to a 96 well flat bottom adhesion surface microplate (manufactured by Corning Incorporated, #3585), and a similar operation was performed.
Then, a solution of […] of Hoechst 33342 (manufactured by Invitrogen) in DMEM (phenol red, L-glutamine free) (manufactured by Wako Pure Chemical Industries, Ltd.) was prepared, and added, at 10 μL per 1 well, to each culture after static culture for 5 days using the above-mentioned low-molecular agar-containing medium and comparison control, and the mixture was stood in a CO2 incubator (37° C., 5% CO2) for 45 min. Successively, a solution of 20 μg/mL Propidium Iodide (manufactured by BIOMOL) in DMEM (phenol red, L-glutamine free) (manufactured by Wako Pure Chemical Industries, Ltd.) was prepared and added at 10 μL per 1 well, and the culture medium was suspended. The plate was centrifuged at 1,500 rpm for 1 min, and high content analysis was performed by cell image analysis using a cell imaging apparatus (“ArrayScan VTI HCS Reader”, manufactured by Thermo Fisher Scientific). At that time, observation was performed with 20 fields of view per well using a ×10 objective lens, cell outline and cell nucleus were detected from Hoechst33342 fluorescence image, and dead cells were detected from propidium iodide fluorescence image. In addition, 50% inhibitory concentration (μM) of flutamide by high content analysis was calculated from the number of cells constituting the spheres, with the value without addition of flutamide as 0% sphere formation inhibitory rate.
(§2) The number of constituent cells of HepG2 cell spheres, sphere number, projected area of sphere (size) (μm^2) and the dead cell number in the sphere, obtained from the cell imaging analysis, are shown in Table 26. Furthermore, the relative cell number when the amount of luminescence without addition of the anticancer agent is 100 was determined from the measurement results of the surviving cell number by luminescence, using the intracellular ATP as an index, and shown in Table 27. In addition, the 50% inhibitory concentration (μM) of flutamide calculated from the amount of luminescence based on intracellular ATP and constituent cell number obtained by high content analysis are shown in Table 28.

[2] = tested on: Human liver cancer cell line HepG2; experiment: Evaluation of hepatotoxic substance by CellTiter-Glo cell survival assay (Experimental Example 9); conditions: for IC50: Homo sapiens, HepG2, cell survival assay by luminescence, read-out: 50% inhibitory concentration
Procedure: as §1
CellTiter-Glo Luminescent Cell Viability Assay (manufactured by Promega) (100 μL) was added to the low-molecular agar-containing culture medium and comparison control, the mixture was stood for 10 min at room temperature, and the amount of luminescence was measured by a microplate reader (“FlexStation 3”, manufactured by Molecular Devices) and according to the protocol recommended by Promega. The amount of luminescence of the medium alone was subtracted, whereby the number of viable cells was measured. In addition, 50% inhibitory concentration (μM) of flutamide by the amount of luminescence was calculated with the number of viable cells when flutamide was not added as 0% inhibition rate.
as §2

[3] = tested on: human ovarian cancer cell line SKOV3; experiment: Cell proliferation test by dispersing SKOV3 cells with growth factors (Experimental Example 4); conditions: 10 days
Procedure: By a method similar to the preparation method of medium composition in Analysis Example 1, a medium composition containing 10 (v/v) % FBS, and 0.03 (w/v) % of low-molecular agar in DMEM (manufactured by Wako Pure Chemical Industries, Ltd.) was prepared.
Then, human ovarian cancer cell line SKOV3 (manufactured by DS PHARMA BIOMEDICAL CO., LTD.) was suspended in the above-mentioned medium composition containing low-molecular agar at 37,000 cells/mL, and dispensed to the wells of a 96 well flat plane ultra-low attachment surface microplate (manufactured by Corning Incorporated, #3474) at 135 μL per 1 well. The plate was stood in a CO2 incubator (37° C., 5% CO2), and a growth factor was added the next day. A similar operation was performed with 10 (v/v) % FBS-containing DMEM free of low-molecular agar. As a growth factor, human heparin bindability epithelial cell growth factor (hHB-EGF) (manufactured by PeproTech, Inc.) at a final concentration of 30 ng/mL or 100 ng/mL, human epithelial cell growth factor (hEGF) (manufactured by PeproTech, Inc.) and human transforming growth factor α (hTGFα) (manufactured by PeproTech, Inc.) each at a final concentration of 1 ng/mL, 3 ng/mL or 10 ng/mL were added by 15 μL per 1 well.
Successively, the plate was cultured in a standing state in a CO2 incubator (37° C., 5% CO2) for 10 days. As a negative control, DMEM in an amount equal to that of a growth factor was added. CellTiter-Glo Luminescent Cell Viability Assay (manufactured by Promega) (100 μL) was added to the cell culture medium after culturing for 10 days, stood for 10 min at room temperature, and the amount of luminescence was measured by a microplate reader (“FlexStation 3”, manufactured by Molecular Devices) and according to the protocol recommended by Promega. The amount of luminescence of the medium composition alone was subtracted, whereby the number of viable cells was measured.
The relative cell number when the amount of luminescence of the negative control is 1 was determined from the amount of luminescence (corresponding to the number of SKOV3 cells) after culturing for 10 days after the addition of the growth factor, and shown in Table 11.

Compound: CC(C)C(=O)Nc1ccc([N+](=O)[O-])c(C(F)(F)F)c1 [flutamide]
- IC50 ([1]; Homo sapiens, HepG2, high content analysis by cell image analysis, number of cells constituting the spheres, low-molecular agar-containing medium, read-out: 50% inhibitory concentration): 73.4 µM
- average cell number per sphere ([1]; flutamide 0.8 μM): 7.977
- average dead cell number in sphere ([1]; flutamide 0.8 μM): 0.06
- average sphere number per 20 mm^2 ([1]; flutamide 0.8 μM): 190.7
- projected area ([1]; flutamide 0.8 μM): 1988 μm^2
- average cell number per sphere ([1]; flutamide 4 μM): 8.89
- average dead cell number in sphere ([1]; flutamide 4 μM): 0.037
- average sphere number per 20 mm^2 ([1]; flutamide 4 μM): 145.3
- projected area ([1]; flutamide 4 μM): 2180 μm^2
- average cell number per sphere ([1]; flutamide 20 μM): 9.263
- average dead cell number in sphere ([1]; flutamide 20 μM): 0.067
- average sphere number per 20 mm^2 ([1]; flutamide 20 μM): 129.7
- projected area ([1]; flutamide 20 μM): 2403 μm^2
- average cell number per sphere ([1]; flutamide 100 μM): 3.76
- average dead cell number in sphere ([1]; flutamide 100 μM): 0.007
- average sphere number per 20 mm^2 ([1]; flutamide 100 μM): 153.7
- projected area ([1]; flutamide 100 μM): 861 μm^2
- average cell number per sphere ([1]; flutamide 500 μM): 1.567
- average dead cell number in sphere ([1]; flutamide 500 μM): 1.163
- average sphere number per 20 mm^2 ([1]; flutamide 500 μM): 7.3
- projected area ([1]; flutamide 500 μM): 408 μm^2
- IC50 ([2]; comparison control (DMEM, 10% FBS, adhesion surface plate)): 51.7 µM
- IC50 ([2]; low-molecular agar containing medium): 53.6 µM
- relative cell number (no addition = 100) ([2]; flutamide 0.8 μM, comparison control (DMEM, 10% FBS, adhesion surface plate)): 100.2
- relative cell number (no addition = 100) ([2]; flutamide 0.8 μM, low-molecular agar-containing medium): 109.6
- relative cell number (no addition = 100) ([2]; flutamide 4 μM, comparison control (DMEM, 10% FBS, adhesion surface plate)): 109.6
- relative cell number (no addition = 100) ([2]; flutamide 4 μM, low-molecular agar-containing medium): 98.7
- relative cell number (no addition = 100) ([2]; flutamide 20 μM, comparison control (DMEM, 10% FBS, adhesion surface plate)): 93.5
- relative cell number (no addition = 100) ([2]; flutamide 20 μM, low-molecular agar-containing medium): 89.8
- relative cell number (no addition = 100) ([2]; flutamide 100 μM, comparison control (DMEM, 10% FBS, adhesion surface plate)): 22.5
- relative cell number (no addition = 100) ([2]; flutamide 100 μM, low-molecular agar-containing medium): 22.4
- relative cell number (no addition = 100) ([2]; flutamide 500 μM, comparison control (DMEM, 10% FBS, adhesion surface plate)): 15.4
- relative cell number (no addition = 100) ([2]; flutamide 500 μM, low-molecular agar-containing medium): 8.1

Compound: hTGFα: human transforming growth factor α (PeproTech)
- relative cell number (negative control = 1) ([3]; growth factor 1 ng/mL, low-molecular agar 0 (w/v)%): 1.448
- relative cell number (negative control = 1) ([3]; growth factor 1 ng/mL, low-molecular agar 0.03 (w/v)%): 1.371
- relative cell number (negative control = 1) ([3]; growth factor 3 ng/mL, low-molecular agar 0 (w/v)%): 1.445
- relative cell number (negative control = 1) ([3]; growth factor 3 ng/mL, low-molecular agar 0.03 (w/v)%): 1.916
- relative cell number (negative control = 1) ([3]; growth factor 10 ng/mL, low-molecular agar 0 (w/v)%): 1.512
- relative cell number (negative control = 1) ([3]; growth factor 10 ng/mL, low-molecular agar 0.03 (w/v)%): 2.167
